Like-named read-outs stand apart in the source and are kept apart here.
Columns and labels:
[1] = 6 h intravenous infusion of octanoic acid, cited from earlier work
3T3-L1 adipocytes [2] = assay: 13C-NMR incorporation of [1-13C]FFA into cellular TG; format: cell-based
Protocol: Incubation with [1-^13C]FFA. […] At termination, cells were washed three times with an ice-cold solution (pH 7.4) containing sucrose (250 mM), Tris (10 mM) and 2-mercaptoethanol (1 mM), scraped into the above solution containing additional EDTA (0.2 mM) and homogenized. Aliquots of the homogenate were stored at −80° C. for DNA and TG analysis. Aliquots for glycerol-3-phosphate dehydrogenase (G3PD) analysis were centrifuged at 44000 g for 20 min and the supernatants were stored at −80° C. until analysis. The homogenates were then extracted for lipids for NMR studies as described previously.
Quantification of ^13C label incorporation into cellular TG from the NMR peak intensity. The ^13C-NMR spectra were obtained at 125 MHz on a Bruker DMX-500 spectrometer with a 5-mm triple resonance probe (Bilerica, Mass., U.S.A.). Other details have been described in our previous reports. The absolute intensities of ^13C═O signals were measured by reference to an internal standard. […] For cells incubated with [1-^13C]octanoate, the signals from direct incorporation of [1-^13C]octanoate were less intense than the C═O signals from unlabelled TG (FIG. 1B; signals from unlabelled saturated acyl chains overlapped those of esterified [1-^13C]octanoate, but were generally 30-40% of their unsaturated counterparts in control cultures). Therefore, the signal intensity from direct incorporation of [1-^13C]octanoate was obtained by subtracting the background signal from control. This may not be completely accurate when octanoate incorporation is very limited.

3T3-L1 cells = assay: Fatty acid induced differentiation (cellular TG content, G3PD activity), no MDI; format: cell-based; conditions: for G3PD / TG: basal medium with insulin 2.5 μg/ml, no MDI, means ± S.E.M., n=3; for Cell loss after extended fatty acid incubation: microscopy, corroborated by DNA analysis; for Time after incubation at which lipid droplets began to appear: undifferentiated cells, not treated with MDI
Protocol: Fatty acid induced differentiation. […] The 5:1 molar ratio of FFA/BSA promotes net transfer of FFA from BSA-binding sites to cells. No MDI treatment was applied to these cultures.
Measurement of total cellular DNA, TG and G3PD activity. […] G3PD was measured by following the disappearance of NADH during enzyme-catalysed dihydroxyacetone phosphate reduction under zero-order conditions.

3T3-L1 fat cells = assay: Basal lipolysis and turnover of esterified fatty acids (glycerol release, NMR, GLC); format: cell-based; conditions: for 8:0 acyl chains in cellular TG: means ± S.E.M.; for [1-13C]fatty acid remaining esterified in TG: NMR, ±S.E.M.
Protocol: Measurement of basal lipolysis. […] Control cultures were terminated at this time, and cells were homogenated for TG and DNA analysis. After aliquots were taken for these analyses, cellular lipids were extracted for NMR and GLC analysis. Parallel cultures were washed three times with PBS solution and incubated with serum-free DMEM containing 1% BSA, conditions that favour basal lipolysis. At the end of the incubation, media were aspirated and assayed for glycerol (Sigma procedure no. 337A [27]), and the cells were harvested for analysis as described above.
Quantification of ^13C label incorporation into cellular TG from the NMR peak intensity. The ^13C-NMR spectra were obtained at 125 MHz on a Bruker DMX-500 spectrometer with a 5-mm triple resonance probe (Bilerica, Mass., U.S.A.). Other details have been described in our previous reports. The absolute intensities of ^13C═O signals were measured by reference to an internal standard. […] Therefore, the signal intensity from direct incorporation of [1-^13C]octanoate was obtained by subtracting the background signal from control.
Methylation of TG and GLC analysis of fatty acyl composition. The lipid components of cell extracts were separated by TLC (hexane/ethyl ether/acetic acid, 70:30:1). Methylation was performed by incubation in BF3-methanol solution (14%, v/v, BF3 in methanol) at 60° C. for 30 min. The fatty acid methyl ester was extracted into a hexane solution. The hexane solution was dried with anhydrous sodium sulphate. To avoid the evaporation of methyl octanoate, the hexane solution was used directly for GLC study without further condensation. GLC analysis was performed on a Shimuzu 14A gas chromatograph with a Supelco SP™-2380 capillary column with an initial oven temperature of 150° C., final temperature of 240° C., heating rate of 4° C./min, injector temperature of 220° C. and detector temperature of 240° C. Carrier gas (He) was at 50 kPa, make-up carrier gas (He) at 100 kPa, hydrogen gas at 55 kPa and compressed air at 50 kPa. The sample was injected in 1-1.5 μl with splitting rate of 1:25.

3T3-L1 adipocytes [3] = assay: Partitioning of [1-14C]FFA between CO2 production and TG incorporation; format: cell-based; conditions: for Exogenous fatty acid converted into CO2 / Exogenous fatty acid converted into TG: 60 min, 1 mM fatty acid in 0.2 mM BSA, means ± S.E.M., n=3
Protocol: Partitioning of [1-^14C]FFA between CO2production7 and TG incorporation. 3T3-L1 cells were prepared in T25 culture flasks. […] The incubation was terminated after 60 min. ^14CO2 released from fatty acid oxidation was collected and quantified using a published protocol. The cellular lipids were extracted and separated by TLC. The TG fraction was scraped off and dissolved in Ecosin-A solution for scintillation counting. […] Cellular DNA was measured in parallel cultures.

3T3L1 fat cells = assay: TG storage and plasma membrane phospholipid fatty acid composition, oleate/linoleate with octanoate; format: cell-based
Protocol: This reduced the cellular TG storage from 41.5 to 27.0 μg/μgDNA. The fatty acid composition in the plasma membrane phospholipids (FIG. 15) was less drastically affected by exogenous fatty acids than that in the TG fraction (FIG. 14).

[4] = After 96 h incubation with DMEM (1% BSA)
[5] = After 96 h incubation with DMEM (1% BSA), n=3
[6] = Before 96 h incubation with DMEM (1% BSA)
[7] = Before 96 h incubation with DMEM (1% BSA), n=3
[8] = after 96-h incubation with DMEM, n=3
[9] = replacement of 20% oleate by octanoate

CCCCCCCC(=O)O [Octanoate, octanoate]
Octanoate recovered as CO2 ([1]; fasted rats): ≤ 90%
Octanoate recovered as CO2 ([1]; fed rats): up to 82%
Peak intensity ratio TG(1,3)/TG(2) (3T3-L1 adipocytes [2]; 2.0 = random access to the three glycerol carbons): higher than 2.0
Octanoate share of total acyl chains stored, molar scale (3T3-L1 adipocytes [2]; converted to a molar scale): 20%
Amount partitioned into de novo synthesis of LCFA (3T3-L1 adipocytes [2]; detected by 13C-NMR): less than 16%
Saturated octanoate incorporation, share of total fatty acids stored (3T3-L1 adipocytes [2]; fat cells): about 10%
Time at which accumulation into TG reached a plateau (3T3-L1 adipocytes [2]; within a 24-h period): 7 h
G3PD (3T3-L1 cells; Day 6): 0.09 ± 0.01 nmol/min per μg of DNA
TG (3T3-L1 cells; Day 6): 0.1 ± 0.02 μg/μg of DNA
G3PD (3T3-L1 cells; Day 9): 0.2 ± 0.01 nmol/min per μg of DNA
TG (3T3-L1 cells; Day 9): 0.6 ± 0.04 μg/μg of DNA
Cell loss after extended fatty acid incubation (3T3-L1 cells): less significant
Time after incubation at which lipid droplets began to appear (3T3-L1 cells): 6 days
Absolute amount of octanoate remaining in TG, of original amount (3T3-L1 fat cells; 96 h, total TG content doubled): about 20%
14:0 acyl chains in cellular TG (3T3-L1 fat cells; [4]): 3.88 ± 0.21%
14:1 acyl chains in cellular TG (3T3-L1 fat cells; [4]): 5.78 ± 0.11%
15:0 acyl chains in cellular TG (3T3-L1 fat cells; [4]): 1.63 ± 0.17%
15:1 acyl chains in cellular TG (3T3-L1 fat cells; [4]): 1.41 ± 0.09%
16:0 acyl chains in cellular TG (3T3-L1 fat cells; [4]): 24.45 ± 0.03%
16:1 acyl chains in cellular TG (3T3-L1 fat cells; [4]): 47.64 ± 0.34%
17:0 acyl chains in cellular TG (3T3-L1 fat cells; [4]): 0.85 ± 0.096%
17:1 acyl chains in cellular TG (3T3-L1 fat cells; [4]): 4.73 ± 0.12%
18:0 acyl chains in cellular TG (3T3-L1 fat cells; [4]): 0.51 ± 0.16%
18:1 n9 acyl chains in cellular TG (3T3-L1 fat cells; [4]): 6.2 ± 0.29%
18:1 n11 acyl chains in cellular TG (3T3-L1 fat cells; [4]): 1.95 ± 0.13%
8:0 acyl chains in cellular TG (3T3-L1 fat cells; [5]): 0.99 ± 0.05%
14:0 acyl chains in cellular TG (3T3-L1 fat cells; [6]): 3.74 ± 0.04%
14:1 acyl chains in cellular TG (3T3-L1 fat cells; [6]): 5.56 ± 0.29%
15:0 acyl chains in cellular TG (3T3-L1 fat cells; [6]): 1.43 ± 0.14%
15:1 acyl chains in cellular TG (3T3-L1 fat cells; [6]): 1.4 ± 0.14%
16:0 acyl chains in cellular TG (3T3-L1 fat cells; [6]): 24.62 ± 0.35%
16:1 acyl chains in cellular TG (3T3-L1 fat cells; [6]): 38.61 ± 0.2%
17:0 acyl chains in cellular TG (3T3-L1 fat cells; [6]): 0.9 ± 0.03%
17:1 acyl chains in cellular TG (3T3-L1 fat cells; [6]): 3.89 ± 0.1%
18:0 acyl chains in cellular TG (3T3-L1 fat cells; [6]): 0.49 ± 0.02%
18:1 n9 acyl chains in cellular TG (3T3-L1 fat cells; [6]): 6.69 ± 0.09%
18:1 n11 acyl chains in cellular TG (3T3-L1 fat cells; [6]): 2.34 ± 0.05%
8:0 acyl chains in cellular TG (3T3-L1 fat cells; [7]): 10.33 ± 0.3%
[1-13C]fatty acid remaining esterified in TG (3T3-L1 fat cells; [8]): About 21±1.2%
Proportion of octanoate in total stored fatty acids (3T3-L1 fat cells; [8]): about 1±0.1%
Octanoate incorporation, share of total acyl composition (3T3-L1 fat cells; before incubation with DMEM, n=3): 10±0.9%
Actual amount of CO2 produced from octanoate relative to exogenous oleate (3T3-L1 adipocytes [3]; 8 vs 18 CO2 per acyl chain): about 3 fold
Exogenous fatty acid converted into CO2 (3T3-L1 adipocytes [3]): 8.4 ± 1.2 nmol/h per μg of DNA
Exogenous fatty acid converted into TG (3T3-L1 adipocytes [3]): 0.9 ± 0.1 nmol/h per μg of DNA
Cellular TG storage (3T3L1 fat cells; oleate/linoleate, without or with 20% (wt %) of oleate replaced by octanoate): 27.0 μg/μgDNA
Decrease in MUFA in plasma membrane phospholipids (3T3L1 fat cells; [9]): ~15%
Increase in PUFA in plasma membrane phospholipids (3T3L1 fat cells; [9]): ~20%
Increase in SFA in plasma membrane phospholipids (3T3L1 fat cells; [9]): ~10%

CCCCCCCC/C=C\CCCCCCCC(=O)O [Oleate, oleate, reference compound]
G3PD (3T3-L1 cells; Day 6): 0.45 ± 0.02 nmol/min per μg of DNA
TG (3T3-L1 cells; Day 6): 1.7 ± 0.2 μg/μg of DNA
G3PD (3T3-L1 cells; Day 9): 1.7 ± 0.1 nmol/min per μg of DNA
TG (3T3-L1 cells; Day 9): 5.1 ± 0.3 μg/μg of DNA
Cell loss after extended fatty acid incubation (3T3-L1 cells): ~20%
Oleate share of accumulated TG (3T3-L1 cells; oleate-treated cells): > 80%
Time after incubation at which lipid droplets began to appear (3T3-L1 cells): 3 days
14:0 acyl chains in cellular TG (3T3-L1 fat cells; [4]): 3.28 ± 0.02%
14:1 acyl chains in cellular TG (3T3-L1 fat cells; [4]): 5.48 ± 0.03%
15:0 acyl chains in cellular TG (3T3-L1 fat cells; [4]): 1.36 ± 0.02%
15:1 acyl chains in cellular TG (3T3-L1 fat cells; [4]): 1.24 ± 0.09%
16:0 acyl chains in cellular TG (3T3-L1 fat cells; [4]): 23.65 ± 0.03%
16:1 acyl chains in cellular TG (3T3-L1 fat cells; [4]): 38.65 ± 0.2%
17:0 acyl chains in cellular TG (3T3-L1 fat cells; [4]): 0.75 ± 0.03%
17:1 acyl chains in cellular TG (3T3-L1 fat cells; [4]): 3.98 ± 0.07%
18:0 acyl chains in cellular TG (3T3-L1 fat cells; [4]): 0.41 ± 0.02%
18:1 n9 acyl chains in cellular TG (3T3-L1 fat cells; [4]): 19.71 ± 0.02%
18:1 n11 acyl chains in cellular TG (3T3-L1 fat cells; [4]): 1.51 ± 0.12%
8:0 acyl chains in cellular TG (3T3-L1 fat cells; [5]): 0%
14:0 acyl chains in cellular TG (3T3-L1 fat cells; [6]): 2.84 ± 0.09%
14:1 acyl chains in cellular TG (3T3-L1 fat cells; [6]): 4.75 ± 0.08%
15:1 acyl chains in cellular TG (3T3-L1 fat cells; [6]): 0.81 ± 0.01%
16:0 acyl chains in cellular TG (3T3-L1 fat cells; [6]): 20.01 ± 0.36%
16:1 acyl chains in cellular TG (3T3-L1 fat cells; [6]): 27.34 ± 0.29%
17:0 acyl chains in cellular TG (3T3-L1 fat cells; [6]): 0.82 ± 0.03%
17:1 acyl chains in cellular TG (3T3-L1 fat cells; [6]): 3.31 ± 0.26%
18:0 acyl chains in cellular TG (3T3-L1 fat cells; [6]): 0.38 ± 0.04%
18:1 n9 acyl chains in cellular TG (3T3-L1 fat cells; [6]): 36.4 ± 0.4%
18:1 n11 acyl chains in cellular TG (3T3-L1 fat cells; [6]): 1.35 ± 0.07%
8:0 acyl chains in cellular TG (3T3-L1 fat cells; [7]): 0%
Decline of proportion of oleate in cellular TG (3T3-L1 fat cells; after 96-h incubation with DMEM, GLC): 50%
[1-13C]fatty acid remaining esterified in TG (3T3-L1 fat cells; [8]): over 99±3.3%
Exogenous fatty acid converted into CO2 (3T3-L1 adipocytes [3]): 0.7 ± 0.1 nmol/h per μg of DNA
Exogenous fatty acid converted into TG (3T3-L1 adipocytes [3]): 7.6 ± 0.8 nmol/h per μg of DNA

Reference: US20050019372A1, “Modified-fat nutritional products useful preventing or treating obesity” (priority 2001, published 2005)
